Reference: patent US12240838B2, “Inhibiting agents for Bruton's tyrosine kinase” (BIOGEN MA INC., priority 2019, dated 2025)

How the values were obtained:
BTK [1] = molecular target: T1, BTK (Homo sapiens (Human), UniProt Q06187); experiment: In Vitro BTK Kinase Assay: BTK-POLYGAT-LS ASSAY; assay type: biochemical; conditions: ATP 10 μM, polyGAT 100 nM, BTK 0.25 nM, 30 minutes
Procedure, shortened: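 BTK (0.25 nM final) with 10 μM ATP and 100 nM polyGAT in pH 7.5 Tris buffer with MgCl2, DTT, Triton X-100 and casein; compound titrated 4-fold. Reaction 30 min, stopped with EDTA. Phosphorylation detected by TR-FRET with Tb-PY20 antibody after 45 min at room temperature; IC50 reported.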

BTK [2] = molecular target: T1, BTK; experiment: In Vitro PD Assay in Human Whole Blood (pBTK assay); assay type: cell-based; conditions: 37° C. for 30 min, 50% inhibition of ECL signal
Procedure, shortened: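 Heparinized human whole blood was spiked with serially diluted compound (0.1% DMSO final) and held 30 min at 37 °C. Samples were then lysed with protease and phosphatase inhibitors. Total BTK was captured and phosphotyrosine detected, with DMSO-only lysates ± phosphatase inhibitors serving as high and low controls.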

T1 sequence (Q06187 whole entry): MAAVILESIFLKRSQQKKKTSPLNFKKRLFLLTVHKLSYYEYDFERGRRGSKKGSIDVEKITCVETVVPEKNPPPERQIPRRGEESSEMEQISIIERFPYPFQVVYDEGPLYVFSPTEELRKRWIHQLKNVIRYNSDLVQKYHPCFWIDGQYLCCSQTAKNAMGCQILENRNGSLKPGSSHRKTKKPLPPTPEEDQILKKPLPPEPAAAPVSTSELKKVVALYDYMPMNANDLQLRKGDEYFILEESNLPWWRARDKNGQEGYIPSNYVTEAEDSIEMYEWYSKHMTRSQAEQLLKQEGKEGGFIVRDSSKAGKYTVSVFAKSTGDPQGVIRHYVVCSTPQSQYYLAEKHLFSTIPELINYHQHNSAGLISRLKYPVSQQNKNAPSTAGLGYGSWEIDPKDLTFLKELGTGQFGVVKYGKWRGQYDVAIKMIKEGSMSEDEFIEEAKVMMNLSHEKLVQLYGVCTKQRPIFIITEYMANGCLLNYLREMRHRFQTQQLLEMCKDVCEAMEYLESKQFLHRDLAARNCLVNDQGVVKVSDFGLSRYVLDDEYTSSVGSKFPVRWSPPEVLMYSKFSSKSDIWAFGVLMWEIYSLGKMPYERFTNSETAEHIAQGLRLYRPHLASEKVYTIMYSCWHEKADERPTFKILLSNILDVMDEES

Compound | IC50 (BTK [1]) [nM] | IC50 (BTK [2]) [nM]
C[C@@H](NC(=O)c1noc(C(C)(C)C)n1)c1ccc(-c2ccnc(NC(=O)C3CC3)c2)cc1C(F)(F)F [Compound 78, (R)-5-(tert-butyl)-N-(1-(4-(2-(cyclopropanecarboxamido)pyridin-4-yl)-2-(trifluoromethyl)phenyl)ethyl)-1,2,4-oxadiazole-3-carboxamide] | ≤ 1 | 100 to 500
C[C@@H](NC(=O)c1nc(C(C)(C)C)no1)c1ccc(-c2ccnc(NC(=O)C3CC3)c2)cc1C(F)(F)F [Compound 79, (R)-3-(tert-butyl)-N-(1-(4-(2-(cyclopropanecarboxamido)pyridin-4-yl)-2-(trifluoromethyl)phenyl)ethyl)-1,2,4-oxadiazole-5-carboxamide] | ≤ 1 | 100 to 500
CC(C)(C)c1noc(C(=O)NCc2ccc(-c3ccnc(NC(=O)C4CC4)c3)cc2OC(F)(F)F)n1 [Compound 80, 3-(tert-butyl)-N-(4-(2-(cyclopropanecarboxamido)pyridin-4-yl)-2-(trifluoromethoxy)benzyl)-1,2,4-oxadiazole-5-carboxamide] | ≤ 1 | 500 to 10000
Cc1cc(-c2ccnc(NC(=O)C3CC3)c2)ccc1CNC(=O)c1cnc(C(C)(C)C)s1 [Compound 81, 2-(tert-butyl)-N-(4-(2-(cyclopropanecarboxamido)pyridin-4-yl)-2-methylbenzyl)thiazole-5-carboxamide] | 1 to 10 | 500 to 10000
Cc1cc(-c2ccnc(NC(=O)C3(F)CC3)c2)ccc1CNC(=O)c1noc(C(C)(C)C)n1 [Compound 82, 5-(tert-butyl)-N-(4-(2-(1-fluorocyclopropane-1-carboxamido)pyridin-4-yl)-2-methylbenzyl)-1,2,4-oxadiazole-3-carboxamide] | 1 to 10 | 500 to 10000
C[C@@H](NC(=O)c1noc(C(C)(C)C)n1)c1ccc(-c2ccnc(NC(=O)C3CC3)c2)cc1OC(F)(F)F [Compound 83, (R)-5-(tert-butyl)-N-(1-(4-(2-(cyclopropanecarboxamido)pyridin-4-yl)-2-(trifluoromethoxy)phenyl)ethyl)-1,2,4-oxadiazole-3-carboxamide] | 1 to 10 | 500 to 10000
Cc1c(CNC(=O)c2noc(C(C)(C)C)n2)ccc(-c2ccnc(NC(=O)C3CC3)c2)c1Cl [Compound 84, 5-(tert-butyl)-N-(3-chloro-4-(2-(cyclopropanecarboxamido)pyridin-4-yl)-2-methylbenzyl)-1,2,4-oxadiazole-3-carboxamide] | ≤ 1 | 100 to 500
Cc1cc(-c2ccnc(NC(=O)C3CC3)c2)ccc1CNC(=O)c1cn(C(C)(C)C)nn1 [Compound 89, 1-(tert-butyl)-N-(4-(2-(cyclopropanecarboxamido)pyridin-4-yl)-2-methylbenzyl)-1H-1,2,3-triazole-4-carboxamide] | 1 to 10 | 100 to 500
Cc1cc(-c2ccnc(NC(=O)C3CC3)c2)ccc1CNC(=O)c1nnc(C(C)(C)C)o1 [Compound 90, 5-(tert-butyl)-N-(4-(2-(cyclopropanecarboxamido)pyridin-4-yl)-2-methylbenzyl)-1,3,4-oxadiazole-2-carboxamide] | 1 to 10 | 100 to 500
C[C@@H](NC(=O)c1nc(C(C)(C)C)no1)c1ccc(-c2ccnc(NC(=O)C3CC3)c2)cc1Cl [Compound 91, (R)-3-(tert-butyl)-N-(1-(2-chloro-4-(2-(cyclopropanecarboxamido)pyridin-4-yl)phenyl)ethyl)-1,2,4-oxadiazole-5-carboxamide] | ≤ 1 | 100 to 500
CC(C)(C)c1noc(C(=O)N[C@@H]2CCN(CC(F)(F)F)Cc3cc(-c4ccnc(NC(=O)C5CC5)c4)ccc32)n1 [Compound 92, (R)-3-(tert-butyl)-N-(8-(2-(cyclopropanecarboxamido)pyridin-4-yl)-2-(2,2,2-trifluoroethyl)-2,3,4,5-tetrahydro-1H-benzo[c]azepin-5-yl)-1,2,4-oxadiazole-5-carboxamide] | ≤ 1 | 100 to 500
Cc1cc(-c2ccnc(NC(=O)C3CC3)c2)ccc1[C@@H](C)NC(=O)c1nc(C(C)(C)C)no1 [Compound 93, (R)-3-(tert-butyl)-N-(1-(4-(2-(cyclopropanecarboxamido)pyridin-4-yl)-2-methylphenyl)ethyl)-1,2,4-oxadiazole-5-carboxamide] | ≤ 1 | 100 to 500
Cc1c(CNC(=O)c2nc(C(C)(C)C)no2)ccc(-c2ccnc(NC(=O)C3CC3)c2)c1F [Compound 94, 3-(tert-butyl)-N-(4-(2-(cyclopropanecarboxamido)pyridin-4-yl)-3-fluoro-2-methylbenzyl)-1,2,4-oxadiazole-5-carboxamide] | ≤ 1 | ≤ 100
Cc1cc(-c2ccnc(NC(=O)C3CC3)c2)ccc1CNC(=O)c1ncc(C(C)(C)C)o1 [Compound 98, 5-(tert-butyl)-N-(4-(2-(cyclopropanecarboxamido)pyridin-4-yl)-2-methylbenzyl)oxazole-2-carboxamide] | 1 to 10 | 500 to 10000
Cc1cc(-c2ccnc(NC(=O)C3CC3)c2)ccc1CNC(=O)c1ccn(C(C)(C)C)n1 [Compound 99, 1-(tert-butyl)-N-(4-(2-(cyclopropanecarboxamido)pyridin-4-yl)-2-methylbenzyl)-1H-pyrazole-3-carboxamide] | 1 to 10 | 500 to 10000
Cc1c(-c2ccnc(NC(=O)C3CC3)c2)ccc(CNC(=O)c2nc(C(C)(C)C)no2)c1F [Compound 100, 3-(tert-butyl)-N-(4-(2-(cyclopropanecarboxamido)pyridin-4-yl)-2-fluoro-3-methylbenzyl)-1,2,4-oxadiazole-5-carboxamide] | ≤ 1 | 500 to 10000
Cc1c(-c2ccnc(NC(=O)C3CC3)c2)ccc(CNC(=O)c2noc(C(C)(C)C)n2)c1F [Compound 101, 5-(tert-butyl)-N-(4-(2-(cyclopropanecarboxamido)pyridin-4-yl)-2-fluoro-3-methylbenzyl)-1,2,4-oxadiazole-3-carboxamide] | ≤ 1 | 500 to 10000
Cc1cc(CNC(=O)c2noc(C(C)(C)C)n2)c(F)cc1-c1ccnc(NC(=O)C2CC2)c1 [Compound 102, 5-(tert-butyl)-N-(4-(2-(cyclopropanecarboxamido)pyridin-4-yl)-2-fluoro-5-methylbenzyl)-1,2,4-oxadiazole-3-carboxamide] | 10 to 1000 | 500 to 10000
Cc1cc(-c2cc(NC(=O)C3CC3)ncc2F)c(F)cc1CNC(=O)c1noc(C(C)(C)C)n1 [Compound 103, 5-(tert-butyl)-N-(4-(2-(cyclopropanecarboxamido)5-fluoropyridin-4-yl)-5-fluoro-2-methylbenzyl)-1,2,4-oxadiazole-3-carboxamide] | ≤ 1 | 100 to 500
CC(C)(C)c1nc(C(=O)NCc2cc(F)c(-c3ccnc(NC(=O)C4CC4)c3)cc2Cl)no1 [Compound 104, 5-(tert-butyl)-N-(2-chloro-4-(2-(cyclopropanecarboxamido)pyridin-4-yl)-5-fluorobenzyl)-1,2,4-oxadiazole-3-carboxamide] | ≤ 1 | 100 to 500
Cc1cc(-c2cc(NC(=O)C3CC3)ncc2F)ccc1CNC(=O)c1noc(C(C)(C)C)n1 [Compound 106, 5-(tert-butyl)-N-(4-(2-(cyclopropanecarboxamido)5-fluoropyridin-4-yl)-2-methylbenzyl)-1,2,4-oxadiazole-3-carboxamide] | ≤ 1 | 500 to 10000
CC(C)(C)c1nc(C(=O)NCc2ccc(-c3ccnc(NC(=O)C4CC4)c3)cc2OC(F)(F)F)no1 [Compound 107, 5-(tert-butyl)-N-(4-(2-(cyclopropanecarboxamido)pyridin-4-yl)-2-(trifluoromethoxy)benzyl)-1,2,4-oxadiazole-3-carboxamide] | ≤ 1 | ≤ 100
